“Also recorded” adds a separate entry of the source. Peptide text beside a SMILES is read from it.
What was measured:
[1] = test system: CD8+ T cells propagated from islets of acutely diabetic NOD mice; experiment: Killing of peptide-pulsed RMA-SKd cells by islet-derived CD8+ T cell lines and clones; type: cell-based
Source text: To confirm that the islet associated CD8^+ T cells of most NOD mice contain clones capable of recognizing the NRP/Kd complex, we generated 31 CD8^+ CTL clones from islets of 9 NOD mice, and tested the clones' ability to kill NRP- or TUM-pulsed RMA-SKd cells. Of the 31 clones tested, 14 (45%) were cytotoxic against NRP-, but not TUM-pulsed, RMA-SKd targets (FIGS. 7B and C).

[2] = test system: INS-reactive CTL clone G9C8; experiment: Tetramer staining of CTL clone G9C8; type: binding; conditions: H-2Kd tetramer
Source text: (§1) In order to follow the accumulation of antigen-specific CD8^+ T cells in islets of pre-diabetic NOD mice, we generated H-2Kd tetramers containing the peptides NRP, NRP-A7, TUM or INS [LYLVCGERG; an insulin-derived peptide recognized by islet-associated T cells from young NOD mice (38)]. The NRP and NRP-A7 tetramers stained virtually all the splenic CD8^+ T cells from 8.3-TCRαβ-transgenic NOD mice, but <1% of the splenic CD8^+ T cells from NOD mice. The INS tetramer stained the INS-reactive CTL clone G9C8 (38), but neither this tetramer nor the negative control tetramer (TUM) stained the splenic CD8^+ T cells from NOD or 8.3-TCRαβ-transgenic NOD mice (data not shown).

[3] = test system: naïve or activated 8.3-CD8+ T cells; experiment: Functional testing of NRP mimics (proliferation, cytokine secretion, cytotoxicity, antagonism); type: cell-based, mouse (8.3-TCRαβ-transgenic NOD)
Source text: To test the validity of this hypothesis, we produced mimics of NRP capable of engaging the 8.3-TCR (a TCR that is representative of the TCRs used by NRP-reactive CD8^+ T cells in the NOD mouse) with very low or very high affinity (when compared to NRP and NRP-A7). This was done by generating numerous single amino acid mutants of NRP (NRP mimics) and by testing the ability of each mutant to elicit proliferation, cytokine secretion and cytotoxicity of naïve or activated 8.3-CD8^+ T cells. Some of the NRP mimics that were unable to elicit the activation of naïve 8.3-CD8^+ T cells were tested for antagonism. Antagonist mimics are unable to elicit the functional activity of T cells but antagonized the agonistic activity of functional mimics (i.e. NRP and NRP-A7). […] Of these, NRP-A4 was the most powerful and was chosen for further experimentation. […] FIG. 15 compares the agonistic properties of all these peptides on naïve 8.3-CD8^+ T cells.
To test the validity of this hypothesis, we produced mimics of NRP capable of engaging the 8.3-TCR (a TCR that is representative of the TCRs used by NRP-reactive CD8^+ T cells in the NOD mouse) with very low or very high affinity (when compared to NRP and NRP-A7). This was done by generating numerous single amino acid mutants of NRP (NRP mimics) and by testing the ability of each mutant to elicit proliferation, cytokine secretion and cytotoxicity of naïve or activated 8.3-CD8^+ T cells. Some of the NRP mimics that were unable to elicit the activation of naïve 8.3-CD8^+ T cells were tested for antagonism. Antagonist mimics are unable to elicit the functional activity of T cells but antagonized the agonistic activity of functional mimics (i.e. NRP and NRP-A7). […] Peptide-induced responses are color-coded from low, medium, […], high and very high (blue, yellow, green and red, respectively). The data are representative of 3 different experiments.
Of these, NRP-A4 was the most powerful and was chosen for further experimentation. […] FIG. 15 compares the agonistic properties of all these peptides on naïve 8.3-CD8^+ T cells.

[4] = test system: 8.3-TCR on 8.3-CD8+ T cells; experiment: Peptide/MHC tetramer binding to 8.3-CD8+ T cells; parameters: species or system mouse (8.3-TCRαβ-transgenic NOD)
Source text: (§2) To confirm that these peptides were recognized with different avidity by 8.3-CD8^+ T cells, we produced and tested peptide/MHC tetramers as previously described (39). A tetramer is preferably used in avidity determinations because tetramers bind more strongly than the corresponding monomers, while maintaining the same relative avidities when a plurality of ligands are compared. […] These peptides were recognized with different avidity not only by 8.3-CD8^+ T cells, but also by the polyclonal NRP-reactive CD8^+ T cells that can be propagated from the pancreatic islets of 20 wk-old NOD mice.
as §1
To confirm that these peptides were recognized with different avidity by 8.3-CD8^+ T cells, we produced and tested peptide/MHC tetramers. […] These peptides were recognized with different avidity not only by 8.3-CD8^+ T cells, but also by the polyclonal NRP-reactive CD8^+ T cells that can be propagated from the pancreatic islets of 20 wk-old NOD mice.

[5] = test system: islet-derived CD8+ T cells; experiment: Peptide/H-2Kd tetramer staining of islet-derived CD8+ T cells; type: binding, NOD mice
Source text: as §2
Since tetramer-reactive cells represent a very small fraction of all the islet-associated T cells, we analyzed the presence of tetramer-reactive clonotypes within the cell population that has undergone antigen-driven activation and thus is likely to contain autoreactive specificities. Islets from non-diabetic 5, 9, 15 and 20 wk-old NOD mice were cultured in the presence of rIL-2 for 6-7 d, to selectively expand IL-2R-positive T cells [˜10% of all the islet-associated CD8^+ T cells (30)]. There were age-dependent increases in the number of T cells recovered from NOD islets and in the % of CD8^+ T cells contained within lines. […]

NOD mice = experiment: Development of spontaneous autoimmune diabetes in peptide-treated NOD female mice; type: in vivo
Source text: To test whether the hypothesis could in fact predict the different outcomes outlined in Table I, we treated groups of NOD female mice with repeated injections of NRP-A4, NRP-I4 and NRP-V7, and followed the mice for development of spontaneous autoimmune diabetes. T cells were also harvested from the treated mice and tested with various ligand/MHC tetramers to determine the impact of the treatment on T cell populations. […] Since these cells have higher diabetogenic potential (see above), it is likely that their accumulation into islets is the single mechanism that accounts for the accelerated onset of diabetes seen in NRP-I4-treated mice. […]
The hypothesis put forth above predicted that, in vivo, each of these peptides would trigger T cells differently depending on the T cells' avidity for NRP. This is summarized in Table I. To test whether the hypothesis could in fact predict the different outcomes outlined in Table I, we treated groups of NOD female mice with repeated injections of NRP-A4, NRP-I4 and NRP-V7, and followed the mice for development of spontaneous autoimmune diabetes. […] Since these cells have higher diabetogenic potential (see above), it is likely that their accumulation into islets is the single mechanism that accounts for the accelerated onset of diabetes seen in NRP-I4-treated mice.
To test the effect of dosage of the peptide ligands on T cell clonal delection or expansion, we treated groups of NOD female mice with repeated injections of “low” or “high” doses of TUM (negative control), NRP, NRP-A7, NRP-A4, NRP-I4 and NRP-V7. Low concentrations of peptide were prepared by resuspending 100 mg of dry peptide in PBS in the absence of acids. The peptides in these preparations, which were also used in previous Examples, are aggregated, and the effective concentrations were low. Soluble, high concentrations of peptide were prepared by diluting 100 mg of soluble peptide (solubilized in the presence of acid) in PBS. The mice were followed for development of spontaneous autoimmune diabetes.

[6] = test system: NRP-A7-reactive CD8+ T cells; experiment: Islet-associated CD8+ T cells of peptide-treated NOD mice (tetramer staining, binding kinetics, cytotoxicity); type: in vivo
Source text: To test whether the hypothesis could in fact predict the different outcomes outlined in Table I, we treated groups of NOD female mice with repeated injections of NRP-A4, NRP-I4 and NRP-V7, and followed the mice for development of spontaneous autoimmune diabetes. T cells were also harvested from the treated mice and tested with various ligand/MHC tetramers to determine the impact of the treatment on T cell populations. […] Since these cells have higher diabetogenic potential (see above), it is likely that their accumulation into islets is the single mechanism that accounts for the accelerated onset of diabetes seen in NRP-I4-treated mice.
To ascertain whether the NRP-A7 treatment had induced the deletion of NRP-A7-reactive CD8^+ T cells, we examined islets of peptide-treated, non-diabetic 32 wk-old mice for the presence of this T cell population. […] To determine whether this resulted from the absence of clonotypes bearing high affinity TCRs for NRP-A7, we compared the kinetics of NRP-A7 tetramer binding to CD8^+ T cells derived from peptide-treated mice. […] Since treatment with NRP-A7 also halted the progression from benign to pernicious islet inflammation, we concluded that development of IDDM in NOD mice requires the avidity maturation of the NRP-A7-reactive CD8^+ T cell population.
The effect of the peptides on T cell populations was also determined.

8.3-CD8+ T cells = experiment: Repeated peptide administration to 8.3-TCRαβ-transgenic NOD mice; type: in vivo; conditions: repeated administration via i.p. and f.p. routes; unpublished data

CC(C)C[C@H](NC(=O)[C@H](Cc1ccccc1)NC(=O)[C@H](Cc1c[nH]c2ccccc12)NC(=O)[C@H](CC(N)=O)NC(=O)[C@H](C)NC(=O)[C@H](CCCCN)NC(=O)[C@H](CC(N)=O)NC(=O)[C@H](Cc1ccc(O)cc1)NC(=O)[C@@H](N)CCCCN)C(=O)O [NRP, KYNKANWFL] (H-KYNKANWFL-OH; N-terminus and C-terminus assumed)
islet-derived CD8+ CTL clones cytotoxic against peptide-pulsed RMA-SKd targets ([1]; 14 of 31 clones from 9 NOD mice): 45%

LYLVCGERG [INS, insulin-derived peptide recognized by islet-associated T cells from young NOD mice]
tetramer staining of CTL clone G9C8 [2]: stained

KYNKANAFL [NRP-A7]
functional class of the peptide on 8.3-CD8+ T cells [3]: super-agonist | Function ([3]; Table I): superagonist | Function (of Function/Avidity) ([3]; Table II): superagonist | agonistic/antagonistic activity, comparative statement ([3]; naive 8.3-CD8+ T cells): superior agonistic properties | avidity class of the peptide [4]: high avidity | Avidity (of Function/Avidity) ([4]; Table II): high | avidity of tetramer binding to 8.3-CD8+ T cells ([4]; peptide/MHC tetramer, proportional to fluorescence intensity of stained T cells): increased avidity | splenic CD8+ T cells stained by tetramer ([4]; splenic CD8+ T cells from 8.3-TCRαβ-transgenic NOD mice): virtually all | size of the tetramer-reactive CD8+ T cell population in islets ([5]; by 15 wk, islets cultured with rIL-2 6-7 d): ~18% | number of islet-derived CD8+ T cells bound by tetramer, comparative ([5]; islets of 20 wk-old NOD mice): more cells bound the NRP-A7 than the NRP tetramers | islet-associated CD8+ T cell clones recognizing the peptide ([1]; reference 37): 45% | islet-associated CD8+ T cell lines recognizing the peptide ([1]; reference 37): 87% | Action (high dose) (NOD mice; Table II, effect on diabetes, high dose, repeated injections): No effect | Action (low dose) (NOD mice; Table II, effect on diabetes, low dose, repeated injections): protective | effect on diabetes at high dose/concentration (NOD mice; high concentration (acid-solubilized peptide in PBS), repeated injections): no effect; also recorded: rather ineffective; also recorded: did not efficiently protect the mice from diabetes | effect on diabetes at low dose/concentration (NOD mice; low concentration (aggregated peptide in PBS), repeated injections): anti-diabetogenic; also recorded: significant protective effect; also recorded: diabetes resistance | development of IDDM/diabetes in treated NOD mice (NOD mice; repeated injections (100 μg in PBS i.p. in Example 6), low dosage according to b141): highly protected | cytotoxicity of islet-derived CD8+ T cells of treated mice ([6]; NRP-A7-pulsed RMA-SKd targets): less cytotoxic to NRP-A7-pulsed, RMA-SKd targets than those derived from NRP- or control peptide-treated mice | insulin 15-23-reactive CD8+ T cells in islets of treated mice ([6]; b198: high concentration NRP-A7, low and high concentrations NRP-V7): significantly increased percentages of insulin 15-23 tetramer-reactive CD8^+ T-cells | effect on NRP-A7-reactive T cells in islets, high concentration ([6]; high concentration): nearly complete deletion of all NRP-A7-reactive cells | effect on NRP-A7-reactive T cells in islets, low concentration ([6]; low concentration): fostered the accumulation of low avidity NRP-A7-reactive T-cells in islets | effect of treatment on high/low avidity NRP-reactive CD8+ T cell subpopulations (conclusion) ([6]; repeated injections): blunted the avidity maturation of the NRP-A7-reactive CD8^+ T cell population; also recorded: promoted the expansion of the low avidity T cell subpopulation; also recorded: selectively eliminated those NRP-A7-reactive CD8^+ T cells expressing high affinity TCRs for NRP-A7 | NRP/NRP-A7 tetramer-reactive CD8+ T cells in islets of treated mice ([6]; repeated injections, low dosage according to b141): greater numbers of NRP-A7 tetramer-reactive cells than control peptide-treated mice | effect on 8.3-CD8+ T cells (8.3-CD8+ T cells): induced the deletion of 8.3-CD8^+ T cells

— US20030064413A1, “Compositions and methods useful in avidity therapy” (priority 2000, published 2003)
